Columns and labels:
[1] = target: Disintegrin and metalloproteinase domain-containing protein 17 (Homo sapiens, UniProt P78536)
Description: Inhibition of human recombinant TACE

[2] = Selectivity for human recombinant TACE over MMP14
[3] = Selectivity for human recombinant TACE over MMP7
[4] = Selectivity for human recombinant TACE over MMP3
[5] = Selectivity for human recombinant TACE over ADAM10
[6] = Selectivity for human recombinant TACE over BMP1
[7] = Selectivity for human recombinant TACE over MMP2
[8] = Selectivity for human recombinant TACE over MMP1

Sequence of Disintegrin and metalloproteinase domain-containing protein 17 (P78536 whole entry, the tested form may be a part): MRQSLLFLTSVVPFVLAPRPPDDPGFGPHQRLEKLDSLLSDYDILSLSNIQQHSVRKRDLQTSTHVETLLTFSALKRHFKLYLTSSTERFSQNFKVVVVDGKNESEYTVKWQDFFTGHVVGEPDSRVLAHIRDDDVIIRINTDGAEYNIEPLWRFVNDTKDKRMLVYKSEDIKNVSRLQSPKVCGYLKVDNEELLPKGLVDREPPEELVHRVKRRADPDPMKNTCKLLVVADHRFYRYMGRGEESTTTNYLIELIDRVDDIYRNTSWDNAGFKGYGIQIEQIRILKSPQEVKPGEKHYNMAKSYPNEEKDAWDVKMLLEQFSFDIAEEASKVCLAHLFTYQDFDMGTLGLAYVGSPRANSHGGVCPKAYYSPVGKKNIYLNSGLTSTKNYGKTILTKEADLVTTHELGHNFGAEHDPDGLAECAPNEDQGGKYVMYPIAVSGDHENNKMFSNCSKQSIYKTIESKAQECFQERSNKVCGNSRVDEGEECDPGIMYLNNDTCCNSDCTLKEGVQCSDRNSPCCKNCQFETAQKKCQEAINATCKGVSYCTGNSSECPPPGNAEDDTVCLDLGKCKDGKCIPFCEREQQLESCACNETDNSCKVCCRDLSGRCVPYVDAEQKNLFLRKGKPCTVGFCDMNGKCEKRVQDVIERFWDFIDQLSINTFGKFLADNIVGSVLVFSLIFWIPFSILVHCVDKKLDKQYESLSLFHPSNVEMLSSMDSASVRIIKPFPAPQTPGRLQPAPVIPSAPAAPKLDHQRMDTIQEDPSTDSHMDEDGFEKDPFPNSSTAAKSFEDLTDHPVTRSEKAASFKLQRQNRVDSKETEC

Ki [1] [nM] | SMILES | further results
14 | CNC(=O)[C@@]1(Cc2ccc(OCc3cc(C)nc4ccccc34)cc2)C[C@@H]1C(=O)NO | –
16 | CCOC(=O)[C@]1(c2cccc(OCc3cc(C)nc4ccccc34)c2)C[C@H]1C(=O)NO | –
260 | COC(=O)[C@@]1(Cc2ccc(OCc3ccccc3Cl)cc2)C[C@@H]1C(=O)NO | –
3100 | CCOC(=O)[C@@]1(Cc2ccc(Oc3ccccc3)cc2)C[C@@H]1C(=O)NO | –
4000 | COC(=O)C1(Cc2cccc(OCc3ccccc3)c2)CC1C(=O)NO (racemic) | –
5000 | Cc1cc(COc2cccc([C@@]3(C(=O)N4CCN(C)CC4)C[C@H]3C(=O)NO)c2)c2ccccc2n1 | –
1 | Cc1cc(COc2ccc(C[C@]3(C(=O)N(C)C)C[C@@H]3C(=O)NO)cc2)c2ccccc2n1 | –
700 | Cc1cc(COc2cccc([C@@]3(C(N)=O)C[C@H]3C(=O)NO)c2)c2ccccc2n1 (relative stereo) | –
> 100000 | COC(=O)[C@@]1(Cc2ccc(OCCc3cccc4ccccc34)cc2)C[C@@H]1C(=O)NO | –
80 | COC(=O)[C@]1(c2cccc(OCc3cccc(F)c3)c2)C[C@H]1C(=O)NO | –
360 | NC(=O)C1(Cc2ccc(OCc3ccccc3)cc2)CC1C(=O)NO (racemic) | –
3000 | Cc1cc(COc2cccc([C@@]3(C(=O)N(C)Cc4ccccc4)C[C@H]3C(=O)NO)c2)c2ccccc2n1 | –
8 | Cc1cc(COc2cccc([C@@]3(C(=O)OC(C)C)C[C@H]3C(=O)NO)c2)c2ccccc2n1 | Ratio Ki [2]: 3000; Ratio Ki [3]: 12400; Ratio Ki [4]: 1500; Ratio Ki [5]: 4; Ratio Ki [6]: 800; Ratio Ki [7]: 1400; Ratio Ki [8]: 7400
9 | Cc1cc(COc2cccc([C@@]3(C(=O)NC4CCCCC4)C[C@H]3C(=O)NO)c2)c2ccccc2n1 | –
800 | COC(=O)[C@@]1(Cc2ccc(OCc3ccccc3)cc2)C[C@@H]1C(=O)NO (racemic) | –
420 | CC#CCOc1ccc(C[C@]2(C(=O)OC)C[C@@H]2C(=O)NO)cc1 | –
50 | COC(=O)[C@]1(c2cccc(OCc3ccc(Cl)cc3)c2)C[C@H]1C(=O)NO | –
> 100000 | COC(=O)[C@@]1(Cc2ccc(OCCc3ccc4ccccc4c3)cc2)C[C@@H]1C(=O)NO | –
1200 | NC(=O)C1(c2cccc(OCc3ccccc3)c2)CC1C(=O)NO (stereo not given) | –
20000 | CCOC(=O)C1(c2ccc(OCc3ccccc3)cc2)CC1C(=O)NO (racemic) | –
100 | CNC(=O)[C@]1(c2cccc(OCc3cc(C)nc4ccccc34)c2)C[C@H]1C(=O)NO | –
800 | COC(=O)C1(Cc2ccc(OCc3ccccc3)cc2)CC1C(=O)NO (racemic) | –
500 | COC(=O)C1(c2cccc(OCc3ccccc3)c2)CC1C(=O)NO (racemic) | –
3000 | COC(=O)[C@]1(c2cccc(OCc3ccc4ccccc4c3)c2)C[C@H]1C(=O)NO | –
2700 | Cc1cc(COc2cccc([C@@]3(C(=O)N(C)C)C[C@H]3C(=O)NO)c2)c2ccccc2n1 | –

The remaining lines, values behind:

SMILES | Ki [1] [nM] | further results
COC(=O)[C@]1(c2cccc(OCCc3ccccc3)c2)C[C@H]1C(=O)NO | 290 | –
COC(=O)[C@]1(c2cccc(Oc3ccccc3C)c2)C[C@H]1C(=O)NO | 240 | –
COC(=O)[C@]1(c2cccc(OC)c2)C[C@H]1C(=O)NO | 3000 | –
COC(=O)[C@@]1(Cc2ccc(OCC3CCCCC3)cc2)C[C@@H]1C(=O)NO | 26000 | –
COC(=O)[C@]1(c2cccc(OCc3ccc(C(F)(F)F)cc3)c2)C[C@H]1C(=O)NO | 18 | Ratio Ki [2]: 4000; Ratio Ki [3]: > 600; Ratio Ki [4]: 200; Ratio Ki [5]: 8; Ratio Ki [6]: 700; Ratio Ki [7]: > 600; Ratio Ki [8]: 1800
CC#CCOc1cccc([C@@]2(C(=O)OC)C[C@H]2C(=O)NO)c1 | 1600 | –
COC(=O)[C@]1(c2cccc(Oc3ccc(C)cc3)c2)C[C@H]1C(=O)NO | 140 | –
COC(=O)[C@]1(c2cccc(OCc3ccc(Cl)c(Cl)c3)c2)C[C@H]1C(=O)NO | 11 | Ratio Ki [2]: 2400; Ratio Ki [3]: 5400; Ratio Ki [4]: 600; Ratio Ki [5]: 10; Ratio Ki [6]: 400; Ratio Ki [7]: 2800; Ratio Ki [8]: 6800
COC(=O)[C@]1(c2cccc(OCCc3ccc4ccccc4c3)c2)C[C@H]1C(=O)NO | 60 | –
COC(=O)[C@]1(c2cccc(Oc3ccc4ccccc4c3)c2)C[C@H]1C(=O)NO | 70 | –
COC(=O)[C@]1(c2cccc(OCc3cccc(C(F)(F)F)c3)c2)C[C@H]1C(=O)NO | 70 | –
Cc1cc(COc2cccc([C@@]3(C(=O)NCc4ccccc4)C[C@H]3C(=O)NO)c2)c2ccccc2n1 | 140 | –
COC(=O)[C@]1(c2cccc(OCc3cccc(OC)c3)c2)C[C@H]1C(=O)NO | 110 | –
Cc1cc(COc2cccc([C@@]3(C(=O)Nc4ccccc4)C[C@H]3C(=O)NO)c2)c2ccccc2n1 | 11 | –
COC(=O)[C@]1(c2cccc(OCC3CCCCC3)c2)C[C@H]1C(=O)NO | 900 | –
COC(=O)[C@@]1(Cc2ccc(OCc3ccc(Cl)c(Cl)c3)cc2)C[C@@H]1C(=O)NO | 130 | –
COC(=O)[C@]1(c2cccc(OCCc3cccc4ccccc34)c2)C[C@H]1C(=O)NO | 50 | –
COC(=O)[C@]1(c2cccc(Oc3ccccc3)c2)C[C@H]1C(=O)NO | 1100 | –
CC#CCOc1ccc(C[C@]2(C(N)=O)C[C@@H]2C(=O)NO)cc1 | 80 | –
